Data set [1] in a line: Phase I trial: toxicity, dose-limiting toxicities, MTD. As to conditions: for recommended phase 2 dose, vorinostat part of the combination: with bortezomib. The class given is in vivo, human (pediatric patients).
Data set [2] in a line: Bortezomib plasma pharmacokinetics, day 8 cycle 1, three-compartment model. The class given is in vivo, human (pediatric patients).
The test system of a further data set is NF-κB. Kind of data set: NF-κB activity by ELISA in patient PBMCs. The class given is in vivo, human (pediatric patients). In general terms: In an ELISA, binding on a coated surface is turned into a signal by an enzyme label.
In another data set the test system is Grp78. Kind of data set: Grp78 immunoblot in patient PBMCs. The class given is in vivo, human (pediatric patients). As to conditions: three evaluable of seven samples (four degraded); vs pre-treatment.
The conditions of data set [3]: prior pediatric single agent trials; cited from earlier work.
The conditions of data set [4]: cited from earlier work.
The conditions of data set [5]: Pediatric Preclinical Testing Program (PPTP); cited from earlier work.
The next data set has as its system solid tumor. As to conditions: Pediatric Preclinical Testing Program (PPTP); cited from earlier work.
For data set [6] the following is noted: no reference given, cited from earlier work.
For data set [7] the following is noted: single agent, children with recurrent or refractory cancer; cited from earlier work.
Data set [8] is described as follows: Vorinostat pharmacokinetics, day 8 cycle 1, noncompartmental.
The mark [9] stands for this setting: Mean, n=6, single intravenous dose of 1.3 mg/m^2, day 8 cycle 1, plasma.

Structures are written as SMILES. “Also recorded” adds a separate entry of the source.

As usually defined, the AUC(0-inf) is the area under the concentration-time curve extrapolated to infinity. What is called AUC(0-t) is the area under the concentration-time curve up to a stated or last time point. With `CC(C)C[C@H](NC(=O)[C@H](Cc1ccccc1)NC(=O)c1cnccn1)B(O)O` [bortezomib, Bortezomib], the “MTD, bortezomib part of the combination” value in data set [1] (i.v. days 1, 4, 8, 11, with vorinostat 230 mg/m^2/day, bortezomib not escalated) is 1.3 mg/m^2/day. In addition, in data set [2] (setting [9]), the “Cl (clearance)” value stood at 9.1 L/hr/m^2 and the “Vc (volume of distribution in the central compartment)” value amounted to 13 L/m^2. Further, the “plasma concentrations prior to the day 8 dose” value in data set [2] (cycle 1, dosed every three days, suggests accumulation) is reported as “low plasma concentrations”. In addition, in [2] (human, plasma, iv, 1.3 mg/m2), the AUC(0-inf) stood at 485 ng·h/mL and the AUC(0-t) worked out at 82 ng·h/mL. Besides, the “pretreatment NF-κB activity levels in PBMCs compared to levels 24 hours after bortezomib administration” value in the data set with NF-κB (Figure 1, 0 vs 24 hours) is given as “the same or increased”. Besides, the “NF-κB activity in PBMCs after bortezomib treatment” value in the data set with NF-κB (PBMCs from solid tumor patients, with vorinostat) is recorded as “did not observe a decrease in NF-κB activity”. For the same molecule, in the data set on NF-κB (in approximately half of the patient samples), the “NF-κB activation in PBMCs at 24 hours” value is reported as “increase in NF-κB activation”. Moreover, in the data set with Grp78, the “Grp78 protein expression in PBMCs after bortezomib treatment” value is reported as “no induction of Grp78 detected; also recorded: not able to detect Grp78 induction”. Besides, the “Dose-limiting toxicities (DLTs)” value in data set [3] was “thrombocytopenia, confusion, and febrile neutropenia associated with hypotension and an elevated creatinine”. Moreover, the “recommended phase 2 regimen in adults with solid tumors, bortezomib dose” value in data set [4] (days 1, 4, 8, and 11, with vorinostat) is 1.3 mg/m^2/dose. Also, in [5], the “in vitro anti-tumor activity” value is “widespread in vitro anti-tumor activity”. For the same molecule, the “in vivo solid tumor activity” value in the data set on solid tumor was “limited to rhabdomyosarcoma, Wilms tumor, osteosarcoma, and medulloblastoma”. Besides, in data set [6], the “adult MTD” value is on record as 1.3 mg/m^2/day.
A word on the Tmax: it is the time at which the peak concentration occurs. Take `O=C(CCCCCCC(=O)Nc1ccccc1)NO` [vorinostat, Vorinostat]: the “MTD, vorinostat part of the combination” value in [1] (PO days 1–5 and 8–12, with bortezomib 1.3 mg/m^2/day days 1, 4, 8, 11) was found to be 230 mg/m^2/day. The “recommended phase 2 dose, vorinostat part of the combination” value came to 230 mg/m^2/day in [1] (PO days 1–5 and 8–12 of a 21 day cycle); 230 mg/m^2/dose in data set [1] (orally days 1–5 and 8–12 of a 21 day cycle). Further, the DLTs result in data set [7] was “neutropenia, thrombocytopenia, and hypokalemia”. In data set [4] (daily for eight days every 21 days, with bortezomib), the “recommended phase 2 regimen in adults with solid tumors, vorinostat dose” value is reported as 400 mg. In addition, the adult recommended dose in data set [6] (daily) is on record as 400 mg. In data set [8] (human, serum, po, 180 mg/m^2), the Tmax worked out at 6 h. For the same molecule, the mean apparent clearance in [8] (mean over patients, dose levels 180–300 mg/m^2 oral, day 8 cycle 1) is 198 L/m^2.
